Cc1ncc([N+](=O)[O-])n1CCO
solubility (mole fraction)
Conditions	298.15 K	303.15 K	308.15 K	313.15 K	318.15 K	323.15 K	328.15 K	333.15 K
in transcutol	0.0207	0.0227	0.0244	0.0263	0.0283	0.0303	0.033	0.0361
in water	0.00111	0.00119	0.00128	0.00137	0.00147	0.00159	0.0017	0.00182

— BigSolDB 2.1
